# Columns and labels:
# [1] = test system: monosodium urate (MSU) models; assay: Von-frey test in monosodium urate models; assay type: in vivo, mice; parameters: threshold values (Von-frey test): unit not given here; settings: monosodium urate model; for analgesic efficacy, Von-frey test (in words): oral 10, 20, 40, 80 mg/kg; for concentration of highest analgesic efficacy, Von-frey test: oral 10, 20, 40, 80 mg/kg tested
# Protocol: 100 mg of uric acid and 60 μl of 10 N NaOH were dissolved in 20 ml of distilled water and the pH of the solution was adjusted to 7.2-7.4 with HCl (1 N) at 60° C. After stirring at room temperature for 5 days, the solution was plated in a 1 ml tube and stored for 4 days. The solution was vortexed overnight until needle-like crystals appeared. The solution was washed twice with 100% ethanol and centrifuged at 3000 rpm for 2 min. Finally, the MSU crystals were collected and dissolved in […] of endotoxin-free PBS. The resulting sample were injected intra-articularly into mice (MSU 300 μg/10 μl each) under anesthesia. At 24 h post-injection, pain or ankle swelling were measured to determine the analgesic efficacy of a test substance.
# (§1) After damage to the sciatic nerve, allodynia induced by the mechanical stimulus was measured. Mice were housed in acrylic chambers on a steel mesh floor and acclimated for ≥60 min before testing. Continuous responses were evaluated using Von-frey filaments by the up-down method. The filaments were brought into vertical contact with the affected left soles and the contact was maintained for 5-6 sec. The response was considered to be positive when the mouse rapidly avoided the stimulus, startled or licked its sole. The Von-frey filaments were first used to stimulate the mice.
# (§2) The analgesic efficacies of the test substances were evaluated in monosodium urate models. To this end, after oral administration of each test substance at concentrations of 10, 20, 40, and 80 mg/kg, threshold values were measured at different periods of time through Von-frey test.
# Akt = assay: Western blot analysis, Akt signaling by LPS signals; assay type: cell-based
# Protocol: (§3) Cells were harvested, washed with 1×PBS, and suspended by adding a mixture of a protein extraction buffer (150 mM NaCl, 50 mM Tris-HCl pH 7.4, 5 mM EDTA pH 8.0, 1% NP-40) and a protease inhibitor cocktail. Then, the reaction was allowed to proceed in ice for 20 min, sonicated, and centrifuged (13,000 rpm, 30 min). The concentration of proteins in the supernatant was quantified by a BCA protein assay and proteins were separated on the basis of size on an SDS-PAGE gel. Thereafter, proteins were transferred to a PVDF membrane and blocked with skim milk for 1 h. Primary and secondary antibodies were coupled and photosensitized with ECL solution to determine the expression levels of desired proteins.
# MAPK = assay: Western blot analysis, MAPK signaling by LPS signals; assay type: cell-based
# Protocol: as §3
# [2] = test system: anticancer drug-induced peripheral neuropathy models (vincristine); assay: Von-frey test in anticancer drug-induced peripheral neuropathy models; assay type: in vivo, mice; parameters: threshold values (Von-frey test): unit not given here
# Excerpt: Vincristine is an anticancer drug that is widely used to treat malignant tumors, including breast cancer, leukemia, lymphoma, and primary brain tumor. However, vincristine was reported to cause neurotoxicity in peripheral nervous fibers and sensory or motor neuropathy after use. The anticancer drug vincristine is known to cause predictable and consistent neurotoxicity in all patients, particularly patients treated with therapeutic doses. When a patient receives a dose of vincristine, paresthesia accompanied by pain is first observed in proportion to the dose. As neuropathy develops, axons are lost together with motor function. Vincristine is also known to induce hypersensitivity of C nerve fiber nociceptors in the peripheral nervous system. Neuropathy was induced by administration of vincristine. First, 0.05 mg/kg of vincristine was administered intraperitoneally. Thereafter, vincristine was administered intraperitoneally twice a week for 6 weeks (0.125 mg/kg each). Neuropathic pain began to appear at week 3 after administration and significant pain was reported at week 4. The degree of neuropathic pain was measured through the […] (Junzo et al., 2005).
# as §1
# as §2, with “anticancer drug-induced peripheral neuropathy” for “monosodium urate”
smiles,measurement,setting,value
"CC(=O)Oc1ccccc1C(=O)NC1=NCC2c3ccccc3Cc3ccccc3N12 (stereo not shown) [E-A, 2-((9,13b-dihydro-1H-dibenzo[c,f]imidazo[1,5-a]azepin-3-yl)carbamoyl)phenyl acetate]",threshold values (Von-frey test),"[1]; oral 10 mg/kg, basal",0.186
same,threshold values (Von-frey test),"[1]; oral 20 mg/kg, basal",0.208
same,threshold values (Von-frey test),"[1]; oral 40 mg/kg, basal",0.190
same,threshold values (Von-frey test),"[1]; oral 80 mg/kg, basal",0.186
same,"analgesic efficacy, Von-frey test (in words)",[1],concentration-dependent until 2-3 h after treatment
same,"concentration of highest analgesic efficacy, Von-frey test",[1],80 mg/kg
same,effect on Akt signaling by LPS signals,Akt,found to affect both MAPK signaling and Akt signaling by LPS signals and reduce the activity of proteins
same,effect on MAPK signaling by LPS signals,MAPK,found to affect both MAPK signaling and Akt signaling by LPS signals and reduce the activity of proteins
"O=C(NC1=NCC2c3ccccc3Cc3ccccc3N12)c1ccccc1O (stereo not shown) [E-S, N-(9,13b-dihydro-1H-dibenzo[c,f]imidazo[1,5-a]azepin-3-yl)-2-hydroxybenzamide]",threshold values (Von-frey test),"[1]; oral 10 mg/kg, 1 h, 10 mg/kg",0.173
same,threshold values (Von-frey test),"[1]; oral 10 mg/kg, 2 h, 10 mg/kg",0.211
same,threshold values (Von-frey test),"[1]; oral 10 mg/kg, 3 h, 10 mg/kg",0.148
same,threshold values (Von-frey test),"[1]; oral 10 mg/kg, 4 h, 10 mg/kg",0.166
same,threshold values (Von-frey test),"[1]; oral 10 mg/kg, 5 h, 10 mg/kg",0.107
same,threshold values (Von-frey test),"[1]; oral 10 mg/kg, basal",0.127
same,threshold values (Von-frey test),"[1]; oral 20 mg/kg, 1 h, 20 mg/kg",0.194
same,threshold values (Von-frey test),"[1]; oral 20 mg/kg, 2 h, 20 mg/kg",0.163
same,threshold values (Von-frey test),"[1]; oral 20 mg/kg, 4 h, 20 mg/kg",0.207
same,threshold values (Von-frey test),"[1]; oral 20 mg/kg, 5 h, 20 mg/kg",0.194
same,threshold values (Von-frey test),"[1]; oral 20 mg/kg, basal",0.127
same,threshold values (Von-frey test),"[1]; oral 40 mg/kg, 1 h, 40 mg/kg",0.183
same,threshold values (Von-frey test),"[1]; oral 40 mg/kg, 2 h, 40 mg/kg",0.214
same,threshold values (Von-frey test),"[1]; oral 40 mg/kg, 3 h, 40 mg/kg",0.278
same,threshold values (Von-frey test),"[1]; oral 40 mg/kg, 4 h, 40 mg/kg",0.257
same,threshold values (Von-frey test),"[1]; oral 40 mg/kg, 5 h, 40 mg/kg",0.152
same,threshold values (Von-frey test),"[1]; oral 40 mg/kg, basal",0.127
same,threshold values (Von-frey test),"[1]; oral 80 mg/kg, 1 h, 80 mg/kg",0.239
same,threshold values (Von-frey test),"[1]; oral 80 mg/kg, 2 h, 80 mg/kg",0.439
same,threshold values (Von-frey test),"[1]; oral 80 mg/kg, 3 h, 80 mg/kg",0.301
same,threshold values (Von-frey test),"[1]; oral 80 mg/kg, 4 h, 80 mg/kg",0.267
same,threshold values (Von-frey test),"[1]; oral 80 mg/kg, 5 h, 80 mg/kg",0.155
same,threshold values (Von-frey test),"[1]; oral 80 mg/kg, basal",0.138
same,"analgesic efficacy, Von-frey test (in words)",[1],concentration-dependent until 2 h after treatment
same,"concentration of highest analgesic efficacy, Von-frey test",[1],80 mg/kg
same,phosphorylation of Akt by LPS,Akt; 100 uM,observed to decrease
same,effect on MAPK signaling by LPS signals,MAPK,did not appear to significantly affect MAPK signaling
same,"concentration of highest analgesic efficacy, Von-frey test","[2]; 1 h after treatment, oral 10, 20, 40, 80 mg/kg tested",80 mg/kg
same,threshold values (Von-frey test),"[2]; oral 10 mg/kg, 1 h",0.110
same,threshold values (Von-frey test),"[2]; oral 10 mg/kg, 2 h",0.163
same,threshold values (Von-frey test),"[2]; oral 10 mg/kg, 3 h",0.180
same,threshold values (Von-frey test),"[2]; oral 10 mg/kg, 4 h",0.145
same,threshold values (Von-frey test),"[2]; oral 10 mg/kg, 5 h",0.135
same,threshold values (Von-frey test),"[2]; oral 10 mg/kg, basal",0.113
same,threshold values (Von-frey test),"[2]; oral 20 mg/kg, 1 h",0.173
same,threshold values (Von-frey test),"[2]; oral 20 mg/kg, 2 h",0.208
same,threshold values (Von-frey test),"[2]; oral 20 mg/kg, 3 h",0.191
same,threshold values (Von-frey test),"[2]; oral 20 mg/kg, 4 h",0.137
same,threshold values (Von-frey test),"[2]; oral 20 mg/kg, 5 h",0.194
same,threshold values (Von-frey test),"[2]; oral 20 mg/kg, basal",0.157
same,threshold values (Von-frey test),"[2]; oral 40 mg/kg, 1 h",0.324
same,threshold values (Von-frey test),"[2]; oral 40 mg/kg, 2 h",0.306
same,threshold values (Von-frey test),"[2]; oral 40 mg/kg, 3 h",0.270
same,threshold values (Von-frey test),"[2]; oral 40 mg/kg, 4 h",0.239
same,threshold values (Von-frey test),"[2]; oral 40 mg/kg, 5 h",0.194
same,threshold values (Von-frey test),"[2]; oral 40 mg/kg, basal",0.173
same,threshold values (Von-frey test),"[2]; oral 80 mg/kg, 1 h",0.408
same,threshold values (Von-frey test),"[2]; oral 80 mg/kg, 2 h",0.385
same,threshold values (Von-frey test),"[2]; oral 80 mg/kg, 3 h",0.390
same,threshold values (Von-frey test),"[2]; oral 80 mg/kg, 4 h",0.239
same,threshold values (Von-frey test),"[2]; oral 80 mg/kg, 5 h",0.242
same,threshold values (Von-frey test),"[2]; oral 80 mg/kg, basal",0.176
same,"analgesic efficacy, Von-frey test (in words)","[2]; oral 10, 20, 40, 80 mg/kg",concentration-dependent until 1 h after treatment and was maintained until 3 h after treatment

# Reference: patent publication US11396511B2, “Substituted 9,13b-dihydro-1H-dibenzo[c,f]imidazo[1,5-a]azepin-3-ylbenzamides as anti-inflammatory and analgesic agents” (FRONTBIO CO., LTD., priority 2017, dated 2022)
